17 compounds from patent publication US20090143279A1 (priority 2007, published 2009) can be followed below.

Counter-ions that a name gives are not always drawn. Like-named read-outs stand apart in the source and are kept apart here.

Test [1] relates to cytochrome c. The test is classed as cell-based, mouse.
Test [2] has as its system mtOXPHOS transcripts. The test is classed as cell-based, mouse.
In test [3] the test system is reactive oxygen species. Format: cell-based, mouse. The following applies: for ROS levels: primary screen, in words; for dose at which ROS levels decreased: retest at 20 nM to 20 μM, FIG. 6a.
Test [4] concerns nuOXPHOS transcripts. Format: cell-based, mouse.
Test [5] deals with OXPHOS gene expression. The test is classed as cell-based, mouse. The following applies: for OXPHOS expression: primary screen, in words; for dose at which OXPHOS expression increased: retest at 20 nM to 20 μM, FIG. 6a.
Test [6] deals with cellular dehydrogenase activity.
In test [7] the test system is mitochondrial membrane potential. Format: cell-based, mouse.
The subject of test [8] is C2C12 myotubes.
Setting [9] is: composite Z-score vs mock-treated (DMSO) wells, concentration of each compound in μM.
Setting [10] is: Table 7, C2C12 myotubes, 48 h, composite Z-score.
[11] abbreviates: Table 3, differentiated C2C12 myotubes, 48 h treatment, composite Z-score vs DMSO.
Setting [12] is: Table 5, C2C12 myotubes, 48 h, composite Z-score.
The mark [13] stands for this setting: normalized composite Z-score vs mock-treated (DMSO) wells, Conc 20 μM.
[14] abbreviates: composite Z-score vs mock-treated (DMSO) wells, Conc 20 μM.
The mark [15] stands for this setting: composite Z-score vs DMSO, Conc 20 μM.
The mark [16] stands for this setting: composite Z-score vs DMSO wells, Conc 20 μM.

For `CC[C@]1(O)C[C@@H]2CN(CCc3c([nH]c4ccccc34)[C@@](C(=O)OC)(c3cc4c(cc3OC)N(C)[C@H]3[C@@](O)(C(=O)OC)[C@H](OC(C)=O)[C@]5(CC)C=CCN6CC[C@]43[C@@H]65)C2)C1` [vinblastine sulfate, reference compound], the cyt c in test [1] (setting [9]) is reported as −1.078. In addition, in test [2] (setting [10]), the “mito-OXPHOS Z” value is on record as 1.64. In addition, the “ROS Zscore” value in test [3] (setting [11]) and in test [3] (setting [12]) was −1.327 throughout. Moreover, the ROS levels entry in test [3] is “suppressing ROS levels”. In addition, the “dose at which ROS levels decreased” value in test [3] amounted to 2 µM. In test [4] (setting [10]), the “nucOXPHOS Z” value is 2.09. Moreover, the GEHTS_Zscore in test [5] (setting [11]) and in test [5] (setting [12]) was 3.171 throughout. Moreover, the OXPHOS expression entry in test [5] is on record as “boost OXPHOS expression”. The “dose at which OXPHOS expression increased” value in test [5] worked out at 2 µM.

Consider `COc1cc([C@@H]2c3cc4c(cc3[C@H](O)[C@H]3COC(=O)[C@H]23)OCO4)cc(OC)c1OC` [podofilox, reference compound], for which, in test [2] (setting [10]), the “mito-OXPHOS Z” value worked out at 1.28. Besides, the “ROS Zscore” value in test [3] (setting [11]) was −1.436. For the same compound, in test [3], the ROS levels result is “suppressing ROS levels” and the “dose at which ROS levels decreased” value stood at 2 µM. In addition, the “nucOXPHOS Z” value in test [4] (setting [10]) stood at 2.53. The same compound returned a GEHTS_Zscore in test [5] (setting [11]) of 3.408. In test [5], the OXPHOS expression entry is listed as “boost OXPHOS expression” and the “dose at which OXPHOS expression increased” value came out at 2 µM.

In test [6], `O=C(O[C@@H]1Cc2c(O)cc(O)cc2O[C@@H]1c1cc(O)c(=O)c2c(O)c(O)cc([C@H]3Oc4cc(O)cc(O)c4C[C@H]3OC(=O)c3cc(O)c(O)c(O)c3)c2c1)c1cc(O)c(O)c(O)c1` [theaflavin digallate] came in with an MTT of −0.518. The mitoOX in test [2] is on record as 0.275. Further, in test [7], the ΔΨm is on record as −0.326. This compound displayed an ROS in test [3] of 0.718. In addition, the nucOX in test [4] turned out to be 0.948. In test [8], this compound returned a Viability of −1.408. The same compound came in with a GE-HTS in test [5] of 0.783.

In turn, `C=C1CCC=C(C)C(=O)CC2C(C)CC12` (centres unmarked) [15-norcaryophyllen-3-one] came in with a cyt c in test [1] (setting [13]) of 0.656. The mitoOX in test [2] (setting [13]) was 0.137. The compound also came in with a ΔΨm in test [7] (setting [13]) of 0.034. The compound further registered an ROS in test [3] (setting [13]) of −0.667. Further, the nucOX in test [4] (setting [13]) is listed as −0.076. In addition, the Viability in test [8] (setting [13]) was 0.557. In test [5] (setting [13]), this compound yielded a GE-HTS of −0.016.

For `C[C@]12CCC(=O)C[C@@H]1CC[C@@H]1[C@@H]2CC[C@]2(C)C(=O)CC[C@@H]12` [5alpha-androstan-3,17-dione], the MTT in test [6] is −0.601. In addition, the cyt c in test [1] is listed as 0.048. In test [2], this compound registered a mitoOX of −0.509. In test [7], this compound came in with a ΔΨm of 0.107. The same compound came in with an ROS in test [3] of 0.649. The same compound returned a nucOX in test [4] of −0.426. In test [8], this compound displayed a Viability of −0.579.

`CC(=O)O[C@@H]1CC2C(C)(C)C=CC(=O)[C@]2(C)C2CC[C@@]3(C)[C@H](c4ccoc4)OC(=O)C4OC43[C@@]21C` (some centres unmarked) [isogedunin] gave an MTT in test [6] (setting [14]) of −1.716. The compound also returned a cyt c in test [1] (setting [14]) of 0.050. Further, the mitoOX in test [2] (setting [14]) is 0.523. The ΔΨm in test [7] (setting [14]) is reported as −0.489. In test [4] (setting [14]), this compound yielded a nucOX of 0.883. The Viability in test [8] (setting [14]) came to 0.404. For the same compound, in test [5] (setting [14]), the GE-HTS came to 0.805.

In the case of `Cc1cc(C(C)(C)CC(C)(C)C)ccc1OCCOCC[N+](C)(C)Cc1ccccc1` [methylbenzethonium], in test [6], the MTT is recorded as −5.614. This compound also returned a mitoOX in test [2] of −1.043. The compound also showed a ΔΨm in test [7] of −4.202. For the same compound, in test [3], the ROS is −3.108. In addition, in test [4], the nucOX is on record as −2.103. In addition, in test [8], the Viability was −4.580. Also, the GE-HTS in test [5] is given as −1.868.

Compound nonoxynol-9 returned an MTT in test [6] (setting [9]) of −1.228. The mitoOX in test [2] (setting [9]) is −0.138. The ΔΨm in test [7] (setting [9]) is −1.484. For the same compound, the ROS in test [3] (setting [9]) came to 0.528. Further, the nucOX in test [4] (setting [9]) is on record as −1.114. In test [8] (setting [9]), this compound came in with a Viability of −0.209. In test [5] (setting [9]), this compound had a GE-HTS of −0.872.

`COc1cc(OC)c2c(=O)c(-c3ccccc3)coc2c1` [5,7-dimethoxyisoflavone] had an MTT in test [6] (setting [15]) of −1.335. This compound registered a cyt c in test [1] (setting [15]) of 0.046. In addition, the mitoOX in test [2] (setting [15]) is on record as 0.773. In test [3] (setting [15]), this compound came in with an ROS of 0.573. In test [4] (setting [15]), the nucOX was 0.916. Besides, the Viability in test [8] (setting [15]) is −0.298. The GE-HTS in test [5] (setting [15]) was 0.945.

Consider Thimerosal [reference compound], for which, in test [6], the MTT was −6.206. In addition, the “mito-OXPHOS Z” value in test [2] amounted to 10.41. The compound further returned a ΔΨm in test [7] of −3.315. The compound further showed an ROS in test [3] of −3.880. In addition, the “nucOXPHOS Z” value in test [4] is given as −1.20. In test [8], this compound yielded a Viability of −5.590.

`CCOC(=O)c1c(C)cc(OC)cc1O` [ethyl everninate] displayed an MTT in test [6] (setting [15]) of −1.302. Further, the cyt c in test [1] (setting [15]) was 0.122. Besides, the mitoOX in test [2] (setting [15]) was −0.980. The same compound yielded a ΔΨm in test [7] (setting [15]) of −0.860. Also, in test [3] (setting [15]), the ROS is given as 0.125. Moreover, the nucOX in test [4] (setting [15]) was −0.131. Further, in test [5] (setting [15]), the GE-HTS is −0.428.

Take `CON` [methoxyamine]: the MTT in test [6] (setting [16]) is listed as −1.833. This compound also registered a cyt c in test [1] (setting [16]) of 0.749. The compound further registered a mitoOX in test [2] (setting [16]) of −1.494. Further, the ΔΨm in test [7] (setting [16]) is given as −0.754. This compound also had an ROS in test [3] (setting [16]) of 0.751. In test [4] (setting [16]), this compound registered a nucOX of −1.049. This compound came in with a GE-HTS in test [5] (setting [16]) of −1.274.

Regarding `CC[N+](CC)(CC)CCOc1cccc(OCC[N+](CC)(CC)CC)c1OCC[N+](CC)(CC)CC` [gallamine], the MTT in test [6] (setting [16]) is given as −1.683. In addition, the cyt c is recorded as 0.036 in test [1] and −0.492 in test [1] (setting [16]). This compound registered a mitoOX in test [2] (setting [16]) of 0.843. This compound registered a ΔΨm in test [7] (setting [16]) of −0.882. Besides, the ROS in test [3] (setting [16]) is 1.259. Further, the nucOX in test [4] (setting [16]) is given as −0.292. The compound further registered a GE-HTS in test [5] (setting [16]) of 0.057.

In turn, `C[C@H]1O[C@@H](n2cc(F)c(=O)[nH]c2=O)[C@H](O)[C@@H]1O` [5-fluoro-5′-deoxyuridine] gave an MTT in test [6] (setting [15]) of −2.176. This compound registered a cyt c in test [1] (setting [15]) of 0.338. In test [2] (setting [15]), this compound had a mitoOX of −0.387. Further, the ΔΨm in test [7] (setting [15]) is −0.828. In test [3] (setting [15]), this compound had an ROS of 0.337. In test [4] (setting [15]), this compound registered a nucOX of −0.284. The same compound gave a GE-HTS in test [5] (setting [15]) of −0.336.

As for `NCCCCN` [putrescine], the MTT in test [6] is recorded as −0.806. The same compound showed a cyt c in test [1] of 0.897. Further, the mitoOX in test [2] was −0.684. For the same compound, in test [3], the ROS is reported as 0.279. In test [4], this compound returned a nucOX of −0.160. Further, the Viability in test [8] was −0.586. In test [5], this compound registered a GE-HTS of −0.341.

In test [1] (setting [14]), `COC(=O)C[C@H]1C(C)(C)[C@@H](OC(C)=O)[C@@H]2CC3=C4CC(=O)O[C@@H](c5ccoc5)[C@]4(C)CC[C@@H]3[C@@]1(C)C2=O` [fissinolide] showed a cyt c of −0.167. The mitoOX in test [2] (setting [14]) is listed as 0.777. In addition, the ΔΨm in test [7] (setting [14]) is −0.324. The ROS in test [3] (setting [14]) came to 0.475. The compound further displayed a nucOX in test [4] (setting [14]) of 0.385. This compound displayed a Viability in test [8] (setting [14]) of 0.060. In test [5] (setting [14]), the GE-HTS came to 0.534.

For `CCN(CC)C(=S)SSC(=S)N(CC)CC` [Disulfiram, reference compound], the “mito-OXPHOS Z” value in test [2] (setting [10]) is reported as 0.93. Also, the “nucOXPHOS Z” value in test [4] (setting [10]) is −4.10.
